Patent US12336981B2, “Compounds and compositions for the inhibition of NAMPT” (Valo Health, Inc., priority 2010, dated 2025)
Where two headings read alike, the source gives them in different places.

Legend:
A2780 cells = assay: In-vitro cell proliferation assay (SRB), A2780 cells; type: cell-based; details: Homo sapiens, A2780, 72 h, A2780 cells, 72 hours, read-out: A2780 IC50
Outline: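 Viable cells measured by SRB staining after 6% TCA fixation, absorbance 570 nm. Media-only background subtracted; % inhibition derived at two compound concentrations.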

NAMPT = biological target: T1, NAMPT (Homo sapiens, UniProt P43490); assay: Biochemical inhibition assay: NAMPT enzymatic reaction, NMN quantified by mass spectrometry; details: read-out: Biochem IC50
T1 construct: His tag; host or cells: E. coli
T1 sequence (P43490 whole entry): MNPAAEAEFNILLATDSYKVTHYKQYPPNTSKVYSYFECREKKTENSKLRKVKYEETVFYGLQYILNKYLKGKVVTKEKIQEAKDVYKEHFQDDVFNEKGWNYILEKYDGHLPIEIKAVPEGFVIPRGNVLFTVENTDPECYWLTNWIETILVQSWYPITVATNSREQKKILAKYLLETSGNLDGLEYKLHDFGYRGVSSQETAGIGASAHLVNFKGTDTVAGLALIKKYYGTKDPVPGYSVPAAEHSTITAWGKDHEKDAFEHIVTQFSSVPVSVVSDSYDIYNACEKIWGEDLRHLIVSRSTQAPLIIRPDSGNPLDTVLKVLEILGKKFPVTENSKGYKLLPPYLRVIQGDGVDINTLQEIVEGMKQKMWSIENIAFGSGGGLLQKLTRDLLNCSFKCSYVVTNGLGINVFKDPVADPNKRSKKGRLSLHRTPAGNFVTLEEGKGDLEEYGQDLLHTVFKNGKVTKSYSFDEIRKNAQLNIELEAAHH
Outline: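 Inhibition of E. coli-expressed His-tagged human NAMPT, measured as NMN formation by mass spectrometry after a 30 min room-temperature reaction containing 1 μM NAM, 100 μM PRPP and 2.5 mM ATP.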

| SMILES | IC50 (A2780 cells; SRB) | IC50 (NAMPT; NAMPT enzymatic reaction) | IC50 (A2780 cells; SRB assay) | IC50 (NAMPT; NAMPT enzymatic assay) |
| --- | --- | --- | --- | --- |
| COc1ccc(S(=O)(=O)c2ccc(CNC(=O)c3cc4ccncc4o3)cc2)cc1Cl [N-({4-[(3-chloro-4-methoxybenzene)sulfonyl]phenyl}methyl)furo[2,3-c]pyridine-2-carboxamide] | 1.8 nM | 7.3 nM | – | – |
| O=C(NCc1ccc(S(=O)(=O)N2CCCCC2)cc1)c1cc2ccncc2[nH]1 [N-{[4-(piperidine-1-sulfonyl)phenyl]methyl}-1H-pyrrolo[2,3-c]pyridine-2-carboxamide] | – | 4 nM | 54 nM | – |
| COc1cc(C(F)(F)F)ccc1S(=O)(=O)c1ccc(CNC(=O)c2cc3ccncc3s2)cc1 [N-[(4-{[2-methoxy-4-(trifluoromethyl)benzene]sulfonyl}phenyl)methyl]thieno[2,3-c]pyridine-2-carboxamide] | 2.2 nM | 9 nM | 7.5 nM | 10 nM |
| O=C(NCc1ccc(S(=O)(=O)c2ccc(C(F)(F)F)cc2)cc1)c1cc2ccncc2o1 | 19.8 nM | – | – | 8.7 nM |
| N#Cc1ccccc1S(=O)(=O)c1ccc(CNC(=O)c2cc3ccncc3o2)cc1 [N-({4-[(2-cyanobenzene)sulfonyl]phenyl}methyl)furo[2,3-c]pyridine-2-carboxamide] | 63.5 nM | 24.6 nM | – | – |
| O=C(NCc1ccc(S(=O)(=O)c2csc(-c3cccc(F)c3)n2)cc1)c1cc2cnccc2[nH]1 [N-({4-[2-(3-fluorophenyl)-1,3-thiazole-4-sulfonyl]phenyl}methyl)-1H-pyrrolo[3,2-c]pyridine-2-carboxamide] | 23.2 nM | – | – | 19.2 nM |
| COc1ccc(S(=O)(=O)c2ccc(CNC(=O)c3ccc4nccn4c3)cc2)cc1C [N-({4-[(4-methoxy-3-methylbenzene)sulfonyl]phenyl}methyl)imidazo[1,2-a]pyridine-6-carboxamide] | 5.32 nM | 14.1 nM | – | – |
| COc1cc(F)ccc1S(=O)(=O)c1ccc(CNC(=O)c2cc3cnccc3[nH]2)cc1 [N-({4-[(4-fluoro-2-methoxybenzene)sulfonyl]phenyl}methyl)-1H-pyrrolo[3,2-c]pyridine-2-carboxamide] | – | 31 nM | 7 nM | – |
| O=C(NCc1ccc(S(=O)(=O)c2ccccc2CN2CCOCC2)cc1)c1cc2ccncc2s1 [N-[(4-{[2-(morpholin-4-ylmethyl)benzene]sulfonyl}phenyl)methyl]thieno[2,3-c]pyridine-2-carboxamide] | – | 13 nM | 3.6 nM | – |
| CCCOc1ccc(S(=O)(=O)c2ccc(CNC(=O)c3ccc4nccn4c3)cc2)cc1Cl | 6 nM | 6.5 nM | – | – |
| CCOCc1ccc(S(=O)(=O)c2ccc(CNC(=O)c3cc4ccncc4o3)cc2)cc1 | 6.6 nM | – | – | 4.9 nM |
| CNC(=O)c1cccc(S(=O)(=O)c2ccc(CNC(=O)c3cnc4nccn4c3)cc2)c1 | 100 to 1000 nM | – | – | 3.7 nM |
| CSc1ccc(S(=O)(=O)c2ccc(CNC(=O)c3cc4ccncc4o3)cc2)cc1F | 11.2 nM | – | – | 12.3 nM |
| CCNC(=O)c1ccc(S(=O)(=O)c2ccc(CNC(=O)c3cc4ccncc4o3)cc2)cc1 | 6.7 nM | – | – | 4.5 nM |
| COc1ccc(S(=O)(=O)c2ccc(CNC(=O)c3cnc4nccn4c3)cc2)cc1F [N-({4-[(3-fluoro-4-methoxybenzene)sulfonyl]phenyl}methyl)imidazo[1,2-a]pyrimidine-6-carboxamide] | 8.3 nM | 1.7 nM | – | – |
| Cc1ccc(S(=O)(=O)c2ccc(CNC(=O)c3cc4cnccc4[nH]3)cc2)cc1Cl | 2.5 nM | 8.3 nM | – | – |
| COc1ccccc1S(=O)(=O)c1ccc(CNC(=O)c2cc3ccncc3o2)cc1 [N-({4-[(2-methoxybenzene)sulfonyl]phenyl}methyl)furo[2,3-c]pyridine-2-carboxamide] | 26.5 nM | 18.9 nM | – | – |
| CCCCOc1ccc(S(=O)(=O)c2ccc(CNC(=O)c3cnc4nccn4c3)cc2)cc1F | 3.1 nM | 1.2 nM | – | – |

| SMILES | IC50 (A2780 cells; SRB) | IC50 (NAMPT; NAMPT enzymatic reaction) | IC50 (A2780 cells; SRB assay) | IC50 (NAMPT; NAMPT enzymatic assay) |
| --- | --- | --- | --- | --- |
| Cc1cc(C)c(S(=O)(=O)c2ccc(CNC(=O)c3cc4cnccc4[nH]3)cc2)c(C)c1 [N-({4-[(2,4,6-trimethylbenzene)sulfonyl]phenyl}methyl)-1H-pyrrolo[3,2-c]pyridine-2-carboxamide] | 46 nM | – | – | 76 nM |
| O=C(NCc1ccc(S(=O)(=O)c2ccc(N3CCOCC3)cc2)cc1)c1cnc2[nH]ncc2c1 [N-[(4-{[4-(morpholin-4-yl)benzene]sulfonyl}phenyl)methyl]-1H-pyrazolo[3,4-b]pyridine-5-carboxamide] | 2.47 nM | – | – | 4.45 nM |
| O=C(NCc1ccc(S(=O)(=O)c2cc(Cl)cc(Cl)c2)cc1)c1cnc2[nH]ncc2c1 | 2.1 nM | 6.7 nM | – | – |
| O=C(NCc1ccc(S(=O)(=O)c2ccccc2)cc1)c1cnc2[nH]ncc2c1 [N-{[4-(benzenesulfonyl)phenyl]methyl}-1H-pyrazolo[3,4-b]pyridine-5-carboxamide] | – | 70 nM | 51 nM | – |
| CCOc1ccc(S(=O)(=O)c2ccc(CNC(=O)c3ccc4nccn4c3)cc2)cc1 | 2.9 nM | 4.5 nM | – | – |
| Cc1ccnc(S(=O)(=O)c2ccc(CNC(=O)c3cc4ccncc4o3)cc2)c1 [N-{[4-(4-methylpyridine-2-sulfonyl)phenyl]methyl}furo[2,3-c]pyridine-2-carboxamide] | 11.4 nM | – | – | 19.2 nM |
| CCC[C@@H](O)c1ccc(S(=O)(=O)c2ccc(CNC(=O)c3cnc4nccn4c3)cc2)cc1 | 14.2 nM | – | – | 4.8 nM |
| O=C(NCc1ccc2ncsc2c1)c1ccc(S(=O)(=O)c2cccc(Cl)c2)cc1 [N-(1,3-benzothiazol-6-ylmethyl)-4-[(3-chlorobenzene)sulfonyl]benzamide] | > 10000 nM | – | – | 10 nM |
| Cc1cc(S(=O)(=O)c2ccc(CNC(=O)c3cc4ccncc4s3)cc2)ccc1F [N-({4-[(4-fluoro-3-methylbenzene)sulfonyl]phenyl}methyl)thieno[2,3-c]pyridine-2-carboxamide] | – | 7 nM | 2.9 nM | – |
| O=C(NCc1ccc(S(=O)(=O)c2ccc3c(c2)OCCO3)cc1)c1cc2ccncc2s1 [N-{[4-(2,3-dihydro-1,4-benzodioxine-6-sulfonyl)phenyl]methyl}thieno[2,3-c]pyridine-2-carboxamide] | – | 4 nM | 2.7 nM | – |
| CCN(CC)C(=O)c1cc(F)cc(S(=O)(=O)c2ccc(CNC(=O)c3cc4cnccc4[nH]3)cc2)c1 | 3.3 nM | – | – | 9.3 nM |
| CC(C)Oc1cccc(S(=O)(=O)c2ccc(CNC(=O)c3cnc4[nH]ncc4c3)cc2)c1 | 24.5 nM | – | – | 46.1 nM |
| CN(C)c1ncc(S(=O)(=O)c2ccc(CNC(=O)c3cc4ccncc4o3)cc2)cn1 [N-({4-[2-(dimethylamino)pyrimidine-5-sulfonyl]phenyl}methyl)furo[2,3-c]pyridine-2-carboxamide] | 12 nM | – | – | 25.8 nM |
| Cc1cc(C(F)(F)F)ccc1S(=O)(=O)c1ccc(CNC(=O)c2ccc3nccn3c2)cc1 | 16.6 nM | – | – | 24.7 nM |
| O=C(NCc1ccc(S(=O)(=O)c2c(Cl)cccc2Cl)cc1)c1cc2ccncc2o1 | 60.1 nM | 12.4 nM | – | – |
| Cn1cc2cc(S(=O)(=O)c3ccc(CNC(=O)c4ccc5nccn5c4)cc3)ccc2n1 [N-{[4-(2-methyl-2H-indazole-5-sulfonyl)phenyl]methyl}imidazo[1,2-a]pyridine-6-carboxamide] | 5.8 nM | – | – | 13.3 nM |
| CC(C)c1cccc(S(=O)(=O)c2ccc(CNC(=O)c3cnc4nccn4c3)cc2)c1 | 5.3 nM | – | – | 2.9 nM |
